The record followed here is publication PMC7998700, “Mycobacterial Epoxide Hydrolase EphD Is Inhibited by Urea and Thiourea Derivatives” (International Journal of Molecular Sciences, 2021).

The target of experiment [1] is EphB (Mycobacterium tuberculosis, UniProt I6YC03). In words: radio-TLC substrate conversion to diol, E. coli lysate supernatant. The experiment is classed as biochemical. The note with it: 50 mM Tris-HCl pH 7.5, 37 °C; labelled compound.
For experiment [2], the target named is EphG (Mycobacterium tuberculosis, UniProt O33283).
EphG, sequence (O33283 whole entry): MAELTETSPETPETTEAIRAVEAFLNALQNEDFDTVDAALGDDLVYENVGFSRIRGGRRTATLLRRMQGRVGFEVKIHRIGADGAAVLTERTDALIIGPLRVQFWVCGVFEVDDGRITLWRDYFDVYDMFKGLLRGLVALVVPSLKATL
The target of experiment [3] is EphA (Mycobacterium tuberculosis, UniProt I6YGS0).
EphA, sequence (I6YGS0 whole entry): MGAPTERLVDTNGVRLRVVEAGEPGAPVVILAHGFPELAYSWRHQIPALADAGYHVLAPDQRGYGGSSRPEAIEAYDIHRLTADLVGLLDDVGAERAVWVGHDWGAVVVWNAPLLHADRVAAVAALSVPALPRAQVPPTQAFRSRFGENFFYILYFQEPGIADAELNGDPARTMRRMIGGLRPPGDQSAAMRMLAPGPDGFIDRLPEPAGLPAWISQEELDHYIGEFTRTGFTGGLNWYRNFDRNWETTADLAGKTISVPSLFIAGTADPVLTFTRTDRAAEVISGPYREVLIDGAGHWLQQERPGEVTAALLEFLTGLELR
For experiment [4], the target named is T1, EphF (Mycobacterium tuberculosis, UniProt P96811).
T1 sequence (P96811 entry or part of it): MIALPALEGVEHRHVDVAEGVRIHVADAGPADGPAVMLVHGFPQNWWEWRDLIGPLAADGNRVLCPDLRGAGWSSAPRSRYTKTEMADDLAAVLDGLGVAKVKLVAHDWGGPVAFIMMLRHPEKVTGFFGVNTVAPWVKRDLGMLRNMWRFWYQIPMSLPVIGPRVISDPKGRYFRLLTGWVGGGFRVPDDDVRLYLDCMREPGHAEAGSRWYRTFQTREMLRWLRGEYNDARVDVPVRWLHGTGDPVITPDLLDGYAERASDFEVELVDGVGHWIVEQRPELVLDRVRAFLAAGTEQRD
Experiment [5] deals with T2, EphD (Mycobacterium tuberculosis, UniProt P9WGS3).
T2 sequence (P9WGS3 whole entry): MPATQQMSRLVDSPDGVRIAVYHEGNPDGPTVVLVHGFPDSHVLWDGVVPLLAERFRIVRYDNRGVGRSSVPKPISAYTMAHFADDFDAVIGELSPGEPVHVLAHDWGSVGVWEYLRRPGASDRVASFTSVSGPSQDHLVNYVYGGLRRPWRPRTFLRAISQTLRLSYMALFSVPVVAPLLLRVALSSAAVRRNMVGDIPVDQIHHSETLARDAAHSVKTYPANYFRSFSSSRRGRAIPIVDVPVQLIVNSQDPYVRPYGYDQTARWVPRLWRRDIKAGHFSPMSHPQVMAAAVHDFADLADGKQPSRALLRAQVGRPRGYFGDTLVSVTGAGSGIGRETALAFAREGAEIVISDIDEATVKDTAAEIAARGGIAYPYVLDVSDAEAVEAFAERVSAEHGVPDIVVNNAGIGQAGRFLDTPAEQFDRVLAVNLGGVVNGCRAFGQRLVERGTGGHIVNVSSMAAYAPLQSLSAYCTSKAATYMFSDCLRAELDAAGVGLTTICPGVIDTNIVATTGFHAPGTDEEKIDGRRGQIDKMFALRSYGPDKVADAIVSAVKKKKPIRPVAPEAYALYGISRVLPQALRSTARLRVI
The target of experiment [6] is EphE (Mycobacterium tuberculosis, UniProt I6YCQ4).
EphE, sequence (I6YCQ4 entry or part of it): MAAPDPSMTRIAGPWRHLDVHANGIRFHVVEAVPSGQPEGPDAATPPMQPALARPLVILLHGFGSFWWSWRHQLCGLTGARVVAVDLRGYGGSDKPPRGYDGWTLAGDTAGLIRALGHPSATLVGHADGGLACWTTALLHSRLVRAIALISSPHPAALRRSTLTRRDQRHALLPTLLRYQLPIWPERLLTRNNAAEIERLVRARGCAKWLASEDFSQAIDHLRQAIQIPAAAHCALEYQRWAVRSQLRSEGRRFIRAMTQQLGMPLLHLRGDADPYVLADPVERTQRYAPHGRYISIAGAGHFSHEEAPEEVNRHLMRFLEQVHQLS
Experiment [7] addresses T1, EphF. In words: radio-TLC epoxide hydrolase assay, E. coli lysate supernatant. The experiment is classed as biochemical. The note with it: substrate [14C]-9,10-cis-epoxystearic acid; 50 mM Tris-HCl pH 7.5, 37 °C, 15 min; without EthA; 2% DMSO.
Experiment [8] concerns the target T2, EphD. The description is as above. The experiment is classed as biochemical. The note with it: substrate [14C]-9,10-cis-epoxystearic acid; 50 mM Tris-HCl pH 7.5, 37 °C, 15 min; without EthA; 2% DMSO.

EphB, sequence (I6YC03 whole entry): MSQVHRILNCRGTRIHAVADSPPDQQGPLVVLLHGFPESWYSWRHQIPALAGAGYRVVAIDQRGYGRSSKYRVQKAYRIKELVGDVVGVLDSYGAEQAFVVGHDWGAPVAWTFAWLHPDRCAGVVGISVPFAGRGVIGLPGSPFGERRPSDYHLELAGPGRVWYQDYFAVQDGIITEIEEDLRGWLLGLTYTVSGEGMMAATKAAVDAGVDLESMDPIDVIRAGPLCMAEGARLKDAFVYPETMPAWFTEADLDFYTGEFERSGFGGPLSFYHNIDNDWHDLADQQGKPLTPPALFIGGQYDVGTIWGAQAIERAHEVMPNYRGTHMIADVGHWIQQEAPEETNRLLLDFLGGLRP

Turning to `CCCCCCCC[C@H]1O[C@H]1CCCCCCCC(=O)O` [9,10-cis-epoxystearic acid], the “radio-TLC substrate conversion to diol, E. coli lysate supernatant” value in experiment [1], in experiment [2], in experiment [3], in experiment [4], in experiment [5] and in experiment [6] was “The EH activity in each reaction was expressed as a substrate conversion percentage” each time.
Consider `CC(C)CCOc1ccc(NC(=S)Nc2ccc(OCCC(C)C)cc2)cc1` [ISO, 4,4′-diisoamyloxydiphenylthiourea], for which the “% inhibition at 10 μg/mL” value in experiment [7] was “The activities of EphD and EphF are inhibited by ISO”; in experiment [8], “The activities of EphD and EphF are inhibited by ISO”.
